Test systems include HCT-116 colon; SNB-19 CNS; UO-31 renal; MOLT-4 leukemia; MDA-MB-435; SK-MEL-2 melanoma; NCI-H460 lung; SN12C renal; DU-145 prostate; HL-60(TB) leukemia.
Holding throughout (experiment): NCI tumour cell line growth inhibition, 48 h

The values that follow come from PubChem BioAssay (NCI).

Molecules are shown by their SMILES. Where “and” joins values, the source holds several entries; their conditions need not be identical. Identical values can stand only once.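 These data come from cells grown in 96-well plates and exposed to compound for 48 hours at five concentrations. GI50: concentration for 50% inhibition of growth. Definition used: TGI = concentration required for complete inhibition of growth.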

With `CC(=O)OC[C@]12CC[C@@H]([C@@H](C)C(N)=O)[C@@H]1[C@H]1CC[C@@H]3[C@@]4(C)CC[C@H](OC(C)=O)C(C)(C)[C@@H]4CC[C@@]3(C)[C@]1(C)CC2`, the GI50 with HCT-116 colon was 3.57 µM; in the test with SNB-19 CNS, 11.9 µM; in the test with UO-31 renal, 7.57 µM; in the test on MOLT-4 leukemia, 3.29 µM; with MDA-MB-435, 5.23 µM; in the test with SK-MEL-2 melanoma, 10.8 µM. Besides, the GI50 in the test with NCI-H460 lung was 13.4 µM; in the test with SN12C renal, 5.65 µM; in the test with DU-145 prostate it was 9.94 µM; with HL-60(TB) leukemia it was 2.76 µM. The TGI with HCT-116 colon was determined as 14.7 µM; in the test on SNB-19 CNS, 29.1 µM; in the test on UO-31 renal it was 21.1 µM; in the test with MOLT-4 leukemia, 15.2 µM; with MDA-MB-435 it was 22.3 µM; with SK-MEL-2 melanoma, 27.5 µM. Besides, the TGI in the test on NCI-H460 lung stood at 30.9 µM; in the test on SN12C renal it was 18.8 µM; in the test with DU-145 prostate, 23.3 µM; in the test with HL-60(TB) leukemia, 8.4 µM.

Regarding `COc1c(CNC(=O)CCl)cc2[nH]c(C)cc2c1CNC(=O)CCl`, the GI50 in the test with HCT-116 colon was 2.93 µM; in the test on SNB-19 CNS, 12.5 µM; in the test on UO-31 renal it was 15.7 µM; with MOLT-4 leukemia, 5.19 µM; with MDA-MB-435, 5.2 µM; in the test with SK-MEL-2 melanoma, 11 µM. The GI50 is 3.73 µM with NCI-H460 lung, 4.92 µM with SN12C renal, 5.03 µM in the test on DU-145 prostate and 4.32 µM in the test on HL-60(TB) leukemia. Besides, the TGI with HCT-116 colon worked out at 15.7 µM; in the test on SNB-19 CNS, 91 µM; in the test on UO-31 renal it was 56.7 µM; in the test on MOLT-4 leukemia it was 83.8 µM; in the test on MDA-MB-435, 36.4 µM; with SK-MEL-2 melanoma, 41.6 µM. Also, the TGI in the test on NCI-H460 lung came to 15.6 µM; with SN12C renal, 39.9 µM; in the test with DU-145 prostate it was 19.7 µM; in the test on HL-60(TB) leukemia, 26.5 µM.

With `CCN(CC)C(=S)SC1CCOP(=O)(N(CCCl)CCCl)N1C` (stereo not drawn), the TGI in the test with HCT-116 colon is > 48.5 µM; with SNB-19 CNS, > 100 µM; with UO-31 renal, > 96.4 µM; in the test on MOLT-4 leukemia it was 49.2 µM; in the test with MDA-MB-435 it was > 100 µM; with SK-MEL-2 melanoma it was 45.3 µM. The TGI with NCI-H460 lung is 14.3 µM; in the test on SN12C renal it was 46 µM; in the test with DU-145 prostate, > 100 µM; with HL-60(TB) leukemia, 32.2 µM.

Take `COc1cc2c3c(n(C)c(=O)c2cc1OC)-c1cc2c(cc1/C3=C\CCCBr)OCO2`: the GI50 is 27.2 µM in the test on HCT-116 colon; 23.4 µM with SNB-19 CNS; > 49.7 µM in the test on UO-31 renal; 21.4 µM in the test on MOLT-4 leukemia; > 100 µM in the test on MDA-MB-435; 21.3 µM in the test with SK-MEL-2 melanoma. Further, the GI50 with NCI-H460 lung was 26.9 µM; with SN12C renal, > 100 µM; with DU-145 prostate it was > 59.6 µM; in the test on HL-60(TB) leukemia, > 80.3 µM. The TGI in the test with HCT-116 colon is > 60.8 µM; with SNB-19 CNS, > 65.8 µM; in the test on UO-31 renal, > 100 µM; in the test with MOLT-4 leukemia it was > 66.2 µM; in the test on MDA-MB-435, > 100 µM; in the test with SK-MEL-2 melanoma it was 69.4 µM. For the same compound, the TGI in the test on NCI-H460 lung, in the test on SN12C renal, with DU-145 prostate and in the test on HL-60(TB) leukemia was > 100 µM throughout.

Regarding `COc1cc([C@@H]2c3cc4c(cc3[C@H](O)[C@H]3COC(=O)[C@H]23)OCO4)cc(OC)c1OC`, the GI50 was < 0.01 µM in the test on HCT-116 colon; < 0.01 µM with SNB-19 CNS; < 0.005 µM in the test on UO-31 renal; < 0.01 µM in the test with MOLT-4 leukemia; < 0.01 µM in the test with MDA-MB-435; < 0.005 µM with SK-MEL-2 melanoma. Also, the GI50 is < 0.005 µM in the test on NCI-H460 lung, < 0.005 µM in the test with SN12C renal, < 0.01 µM in the test on DU-145 prostate and < 0.01 µM in the test on HL-60(TB) leukemia. In addition, the TGI with HCT-116 colon is 0.5 µM; in the test on SNB-19 CNS, > 100 µM and 50 µM; in the test with UO-31 renal, > 100 µM and 50 µM and 42.7 µM; in the test with MDA-MB-435 it was < 0.005 µM; in the test on NCI-H460 lung, > 100 µM and 50 µM and > 7.95 µM; in the test with SN12C renal, > 100 µM and 35 µM. Further, the figures for the TGI in the test with DU-145 prostate and in the test with HL-60(TB) leukemia were 0.5 µM and < 0.005 µM, respectively.

Consider `C=C1CCC2C3(C)COC(c4ccc(SC)cc4)OC3CCC2(C)C1C/C=C1/C(=O)OCC1O` (stereo not drawn), for which the GI50 was 1.76 µM in the test with HCT-116 colon; 16.8 µM with SNB-19 CNS; 9.73 µM with UO-31 renal; 3.43 µM in the test with MOLT-4 leukemia; 3.69 µM with MDA-MB-435; 3.73 µM in the test on SK-MEL-2 melanoma. The GI50 is 8.78 µM in the test on NCI-H460 lung, 3.94 µM in the test with SN12C renal, 11.5 µM with DU-145 prostate and 2.59 µM in the test on HL-60(TB) leukemia. For the same compound, the TGI was found to be 3.44 µM in the test on HCT-116 colon; 30.6 µM in the test with SNB-19 CNS; 21.9 µM in the test on UO-31 renal; 20.9 µM in the test on MOLT-4 leukemia; 16.4 µM with MDA-MB-435; 15.5 µM with SK-MEL-2 melanoma. In addition, the TGI is 22.3 µM in the test with NCI-H460 lung, 18.6 µM in the test on SN12C renal, 23.7 µM in the test with DU-145 prostate and 7.87 µM in the test with HL-60(TB) leukemia.

Take `OC(COc1cccc2ccccc12)CN1CCN(c2ccccc2)CC1` (stereo not drawn): the GI50 is 13.4 µM with HCT-116 colon; 15.8 µM in the test with SNB-19 CNS; 5.94 µM with UO-31 renal; 16.3 µM in the test with MOLT-4 leukemia; 15.5 µM in the test on MDA-MB-435; 16.2 µM in the test on SK-MEL-2 melanoma. In addition, the GI50 is 15.9 µM with NCI-H460 lung, 16.4 µM in the test on SN12C renal, 17.7 µM with DU-145 prostate and 21.1 µM in the test on HL-60(TB) leukemia. Moreover, the TGI is 27 µM with HCT-116 colon; 30.7 µM with SNB-19 CNS; 20.4 µM with UO-31 renal; 56.3 µM in the test with MOLT-4 leukemia; 30.5 µM in the test on MDA-MB-435; 30.6 µM in the test on SK-MEL-2 melanoma. Moreover, the TGI in the test on NCI-H460 lung was 31 µM; with SN12C renal it was 31 µM; in the test with DU-145 prostate, 31.9 µM; with HL-60(TB) leukemia, 52.4 µM.

As for `COC(=O)c1ccc([N+](=O)[O-])c(O)c1`, the TGI with HCT-116 colon, with SNB-19 CNS, in the test with UO-31 renal, in the test on MOLT-4 leukemia, with MDA-MB-435 and in the test with SK-MEL-2 melanoma was > 100 µM throughout. The TGI in the test on NCI-H460 lung, in the test on SN12C renal, with DU-145 prostate and in the test on HL-60(TB) leukemia was > 100 µM in each case.
